Molecular target: Rho-associated protein kinase 2 (Homo sapiens, UniProt O75116)
Assay: Inhibition of ROCK2 (unknown origin) using STK2 substrate after 4 hrs by HTRF mode

Rho-associated protein kinase 2, sequence (O75116 whole entry): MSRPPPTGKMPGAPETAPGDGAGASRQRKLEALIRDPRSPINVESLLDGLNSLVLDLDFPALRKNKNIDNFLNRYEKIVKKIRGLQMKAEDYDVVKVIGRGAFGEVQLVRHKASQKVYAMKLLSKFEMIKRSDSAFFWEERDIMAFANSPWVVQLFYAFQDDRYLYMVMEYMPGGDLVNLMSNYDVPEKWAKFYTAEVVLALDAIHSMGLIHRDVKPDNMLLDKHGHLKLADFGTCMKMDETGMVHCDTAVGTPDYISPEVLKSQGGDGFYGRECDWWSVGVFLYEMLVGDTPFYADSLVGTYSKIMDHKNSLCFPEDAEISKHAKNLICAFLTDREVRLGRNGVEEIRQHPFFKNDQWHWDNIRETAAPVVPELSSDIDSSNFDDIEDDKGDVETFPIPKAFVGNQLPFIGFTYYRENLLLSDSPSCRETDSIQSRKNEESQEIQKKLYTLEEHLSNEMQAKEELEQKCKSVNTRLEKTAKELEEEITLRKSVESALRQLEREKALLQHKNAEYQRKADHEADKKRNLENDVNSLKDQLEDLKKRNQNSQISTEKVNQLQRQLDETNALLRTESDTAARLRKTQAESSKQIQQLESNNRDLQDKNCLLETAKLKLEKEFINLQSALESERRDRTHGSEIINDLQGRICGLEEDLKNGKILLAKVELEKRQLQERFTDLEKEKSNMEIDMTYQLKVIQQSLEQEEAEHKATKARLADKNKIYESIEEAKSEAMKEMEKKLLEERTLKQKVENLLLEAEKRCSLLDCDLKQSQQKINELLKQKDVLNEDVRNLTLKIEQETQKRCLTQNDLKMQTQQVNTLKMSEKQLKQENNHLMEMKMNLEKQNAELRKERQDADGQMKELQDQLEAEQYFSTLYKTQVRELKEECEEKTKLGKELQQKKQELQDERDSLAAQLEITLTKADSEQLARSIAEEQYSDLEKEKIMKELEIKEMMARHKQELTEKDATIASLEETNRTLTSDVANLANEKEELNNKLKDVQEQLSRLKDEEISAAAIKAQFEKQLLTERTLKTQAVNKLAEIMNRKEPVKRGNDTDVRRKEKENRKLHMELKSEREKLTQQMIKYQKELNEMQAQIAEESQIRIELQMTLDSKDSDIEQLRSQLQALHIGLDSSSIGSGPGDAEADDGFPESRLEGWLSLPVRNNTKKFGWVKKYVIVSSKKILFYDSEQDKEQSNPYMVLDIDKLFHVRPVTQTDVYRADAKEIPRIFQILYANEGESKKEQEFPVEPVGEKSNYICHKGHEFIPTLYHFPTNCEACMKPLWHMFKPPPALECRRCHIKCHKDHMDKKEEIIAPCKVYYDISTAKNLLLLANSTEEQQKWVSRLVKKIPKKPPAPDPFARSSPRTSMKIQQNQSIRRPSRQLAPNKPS

IC50: 751 nM
Compound: CNC(=O)N(CCO)c1ccc(-c2cn[nH]c2)cc1

From BindingDB's records for doi:10.1016/j.bmc.2015.03.047 (Shanghai Institute of Technology, 2015)
